Source: patent US6750228B1, “Aromatic sulfone hydroxamic acid metalloprotease inhibitor” (priority 1997, dated 2004)
pIC50: −log10 of the molar value. Structures can show the parent of a compound that is named as a salt. Where two headings read alike, the source gives them in different places.

Tests used:
Experiment in all cases: biochemical
[1] = biological target: T1, MMP-1 (Homo sapiens, UniProt P03956); settings: read-out: MMP-1 IC50
T1 construct: made in house; host or cells: transfected HT-1080 cells (provided by Dr. Harold Welgus, Washington University)
T1 sequence (P03956 100-469): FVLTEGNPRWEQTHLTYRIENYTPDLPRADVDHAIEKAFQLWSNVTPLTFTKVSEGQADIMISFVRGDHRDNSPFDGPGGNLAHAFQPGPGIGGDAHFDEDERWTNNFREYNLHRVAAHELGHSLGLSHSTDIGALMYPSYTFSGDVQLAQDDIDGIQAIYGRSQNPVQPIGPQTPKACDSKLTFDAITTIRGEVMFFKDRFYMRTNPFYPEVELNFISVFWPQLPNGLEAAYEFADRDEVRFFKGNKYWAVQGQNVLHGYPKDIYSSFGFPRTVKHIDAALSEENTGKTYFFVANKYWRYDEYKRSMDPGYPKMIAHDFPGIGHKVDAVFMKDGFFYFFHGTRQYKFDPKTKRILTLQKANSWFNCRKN
Method in brief: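 Substrate MCA-PLGL-Dpa-AR-NH2 at 4 μM final; pH 7.5 Tris/NaCl/CaCl2 buffer with 0.05% polyethyleneglycol lauryl ether, 1% DMSO, room temperature. MMP-1 was expressed in transfected HT-1080 cells and APMA-activated.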

[2] = biological target: T2, MMP-13 (Homo sapiens, UniProt P45452); settings: for pIC50: read-out: MMP-13 IC50
T2 construct: made in house; host or cells: baculovirus / insect cells
Method in brief: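 APMA- or trypsin-activated enzymes were preincubated with inhibitor for 5 min at room temperature, then the fluorogenic substrate MCA-Pro-Leu-Gly-Leu-Dpa-Ala-Arg-NH2 was added to a final 4 μM.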

[3] = biological target: T3, MMP-2 (Homo sapiens, UniProt P08253); settings: for pIC50: read-out: MMP-2 IC50
T3 construct: made in house; provided by Dr. Gregory Goldberg, Washington University
T3 sequence (P08253 110-660): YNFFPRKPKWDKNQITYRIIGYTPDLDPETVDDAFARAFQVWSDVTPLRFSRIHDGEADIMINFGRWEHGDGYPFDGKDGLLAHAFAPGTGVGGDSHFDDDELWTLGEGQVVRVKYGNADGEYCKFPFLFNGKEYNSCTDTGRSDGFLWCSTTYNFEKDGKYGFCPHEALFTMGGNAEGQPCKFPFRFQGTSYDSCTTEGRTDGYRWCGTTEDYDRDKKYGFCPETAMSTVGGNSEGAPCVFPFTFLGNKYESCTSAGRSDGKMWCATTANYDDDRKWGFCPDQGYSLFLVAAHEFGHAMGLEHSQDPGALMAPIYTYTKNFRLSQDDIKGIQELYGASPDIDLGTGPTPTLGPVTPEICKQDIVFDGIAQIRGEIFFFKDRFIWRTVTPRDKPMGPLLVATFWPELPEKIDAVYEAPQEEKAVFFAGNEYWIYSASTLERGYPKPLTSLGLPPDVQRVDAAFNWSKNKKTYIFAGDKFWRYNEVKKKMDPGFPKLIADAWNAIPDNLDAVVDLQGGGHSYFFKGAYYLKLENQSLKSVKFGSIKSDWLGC
Method in brief: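 Assay buffer 100 mM Tris-HCl, 100 mM NaCl, 10 mM CaCl2, pH 7.5. Activated MMP + inhibitor, 5 min RT; then methoxycoumarin peptide substrate, 4 μM final. Readout fluorescence; IC50 calculated.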

[4] = recombinant human MMP-1, MCA peptide substrate 4 μM, pH 7.5, room temperature
[5] = recombinant human MMP-2, MCA peptide substrate 4 μM, pH 7.5, room temperature
[6] = recombinant human MMP-13, MCA peptide substrate 4 μM, pH 7.5, room temperature

Structure (SMILES) | pIC50 [1, 4] | pIC50 [3, 5] | pIC50 [2, 6] | IC50 ([2]; MMP-13 IC50 (nM), recombinant human MMP-13, MCA peptide substrate 4 μM, pH 7.5, room temperature) [nM] | pIC50 [1] | pIC50 [2] | pIC50 [3] | IC50 ([3]; MMP-2 IC50 (nM)) [nM]
O=C(NO)C1(S(=O)(=O)c2ccc(N3CCC(c4ccc(Cl)cc4)CC3)cc2)CCOCC1 [Example 541] | < 5.00 | 8.70 | – | 0.7 | – | – | – | –
COCCN1CCC(C(=O)NO)(S(=O)(=O)c2ccc(N3CCC(OCc4ccc(F)c(C(F)(F)F)c4)CC3)cc2)CC1 [Example 446] | < 5.00 | 5.15 | 6.57 | – | – | – | – | –
Cc1ccc(C(=O)C2CCN(c3ccc(S(=O)(=O)C4(C(=O)NO)CCOCC4)cc3)CC2)cc1 [Example 652] | < 5.00 | 7.09 | 9.40 | – | – | – | – | –
Cn1ccnc1CN1CCC(C(=O)NO)(S(=O)(=O)c2ccc(Oc3ccc(OC(F)(F)F)cc3)cc2)CC1 [Example 386] | 5.68 | 9.70 | 9.40 | – | – | – | – | –
O=C(Nc1ccc(C(F)(F)F)cc1)N1CCC(C(=O)NO)(S(=O)(=O)c2ccc(Oc3ccc(OC(F)(F)F)cc3)cc2)CC1 [Example 366] | < 5.00 | 8.60 | 7.89 | – | – | – | – | –
O=C(c1cccc(C(F)(F)F)c1)C1CCN(c2ccc(S(=O)(=O)C3(C(=O)NO)CCOCC3)cc2)CC1 [Example 727] | < 5.00 | 6.62 | 7.46 | – | – | – | – | –
O=C(Nc1cccc(OC(F)(F)F)c1)C1CCN(c2ccc(S(=O)(=O)C3(C(=O)NO)CCOCC3)cc2)CC1 [Example 68] | < 5.00 | 5.74 | 7.89 | – | – | – | – | –
O=C(NO)C1(S(=O)(=O)c2ccc(N3CCC(S(=O)(=O)c4ccccc4)CC3)cc2)CCN(C2CC2)CC1 [Example 409] | < 5.00 | 6.56 | 7.65 | – | – | – | – | –
O=C(NO)C1(S(=O)(=O)c2ccc(N3CCC(Sc4ccccc4)CC3)cc2)CCN(C2CC2)CC1 [Example 389] | < 5.00 | 7.79 | 8.77 | – | – | – | – | –
O=C(NO)C1(S(=O)(=O)c2ccc(N3CCC(OCc4cccc(C(F)(F)F)c4)CC3)cc2)CCN(C2CC2)CC1 [Example 402] | < 5.00 | 6.47 | 7.80 | – | – | – | – | –
O=C(Nc1ccccc1Cl)N1CCC(C(=O)NO)(S(=O)(=O)c2ccc(Oc3ccc(OC(F)(F)F)cc3)cc2)CC1 [Example 365] | < 5.00 | 10.00 | 9.52 | – | – | – | – | –
CCCC(=O)N1CCN(c2ccc(S(=O)(=O)C3(C(=O)NO)CCOCC3)cc2)CC1 [Example 590] | < 5.00 | 7.10 | 6.92 | – | – | – | – | –
O=C(c1cccc(F)c1)C1CCN(c2ccc(S(=O)(=O)C3(C(=O)NO)CCOCC3)cc2)CC1 [Example 728] | < 5.00 | 6.97 | 8.03 | – | – | – | – | –
CCc1ccc(C(=O)C2CCN(c3ccc(S(=O)(=O)C4(C(=O)NO)CCOCC4)cc3)CC2)cc1 [Example 733] | < 5.00 | 6.57 | 8.80 | – | – | – | – | –
CN(C)c1ccc(C(=O)C2CCN(c3ccc(S(=O)(=O)C4(C(=O)NO)CCOCC4)cc3)CC2)cc1 [Example 784] | < 5.00 | 5.35 | 8.22 | – | – | – | – | –
O=C(c1cc(F)cc(F)c1)C1CCN(c2ccc(S(=O)(=O)C3(C(=O)NO)CCOCC3)cc2)CC1 [Example 724] | < 5.00 | 6.52 | 7.54 | – | – | – | – | –
O=CN1CCC(C(=O)NO)(S(=O)(=O)c2ccc(Oc3ccc(OC(F)(F)F)cc3)cc2)CC1 [Example 416] | 5.52 | 9.70 | 9.40 | – | – | – | – | –
O=C(c1ccc(F)cc1)C1CCN(c2ccc(S(=O)(=O)C3(C(=O)NO)CCS(=O)(=O)CC3)cc2)CC1 [Example 161] | – | – | – | – | < 5.00 | 7.49 | 6.05 | –
CCOc1ccccc1C1CCN(c2ccc(S(=O)(=O)C3(C(=O)NO)CCOCC3)cc2)CC1 [Example 544] | < 5.00 | – | 7.46 | – | – | – | – | 3100
CN(C)S(=O)(=O)N(C)C1CCN(c2ccc(S(=O)(=O)C3(C(=O)NO)CCOCC3)cc2)CC1 [Example 832] | < 5.00 | 5.70 | 7.74 | – | – | – | – | –

Second part, led by results:

pIC50 [1, 4] | pIC50 [3, 5] | pIC50 [2, 6] | Structure (SMILES) | IC50 ([2]; MMP-13 IC50 (nM), recombinant human MMP-13, MCA peptide substrate 4 μM, pH 7.5, room temperature) [nM] | pIC50 [1] | pIC50 [2] | pIC50 [3] | IC50 ([3]; MMP-2 IC50 (nM)) [nM]
< 5.00 | 6.66 | 8.54 | O=C(NO)C1(S(=O)(=O)c2ccc(N3CCC(OCc4ccc(COCC(F)(F)F)cc4)CC3)cc2)CCOCC1 [Example 607] | – | – | – | – | –
< 5.00 | 6.54 | 6.57 | O=C(NO)C1(S(=O)(=O)c2ccc(Oc3ccncc3)cc2)CCSCC1 [Example 151] | – | – | – | – | –
< 5.00 | 5.72 | 6.11 | O=C(NO)C1(S(=O)(=O)c2ccc(N3CCN(C4CCCCC4)CC3)cc2)CCOCC1 [Example 489] | – | – | – | – | –
< 5.00 | 5.20 | 5.92 | CCOC1CCCN(c2ccc(S(=O)(=O)C3(C(=O)NO)CCOCC3)cc2)C1 (stereo not drawn) [Example 562] | – | – | – | – | –
< 5.00 | 9.70 | 9.05 | O=C(CNCc1ccncc1)N1CCC(C(=O)NO)(S(=O)(=O)c2ccc(Oc3ccc(C(F)(F)F)cc3)cc2)CC1 [Example 325] | – | – | – | – | –
5.40 | 8.35 | 8.27 | O=C(NO)C1(S(=O)(=O)c2ccc(N3CC=CCC3)cc2)CCOCC1 [Example 210] | – | – | – | – | –
5.43 | > 10.00 | > 10.00 | O=C(NO)C1(S(=O)(=O)c2ccc(Oc3ccc(OC(F)(F)F)cc3)cc2)CCN(CCn2ccnc2)CC1 [Example 261, N-Hydroxy-1-[2-(1H-imidazol-1-yl)ethyl]-4-[[4-[4-(trifluoromethoxy)phenoxy]phenyl]sulfonyl]-4-piperidinecarboxamide, Dihydrochloride] | – | – | – | – | –
< 5.00 | 7.40 | 8.37 | Cc1cccc(COC2CCC(Oc3ccc(S(=O)(=O)C4(C(=O)NO)CCOCC4)cc3)C2)c1 (stereo not drawn) [Example 706] | – | – | – | – | –
< 5.00 | 9.52 | 9.15 | O=C(CCCCN1CCCCC1)N1CCC(C(=O)NO)(S(=O)(=O)c2ccc(Oc3ccc(C(F)(F)F)cc3)cc2)CC1 [Example 334] | – | – | – | – | –
< 5.00 | 5.80 | 6.30 | CCN1CCN(c2ccc(S(=O)(=O)C3(C(=O)NO)CCOCC3)cc2)CC1 [Example 622] | – | – | – | – | –
< 5.00 | 6.62 | 6.80 | O=C(NO)C1(S(=O)(=O)c2ccc(N3CCCCCC3)cc2)CCOCC1 [Example 212] | – | – | – | – | –
< 5.00 | 7.71 | 9.05 | O=C(NO)C1(S(=O)(=O)c2ccc(N3CCC(CCOCc4ccccc4)CC3)cc2)CCOCC1 [Example 499] | – | – | – | – | –
< 5.00 | 5.74 | 7.52 | CC1CN(c2ccc(S(=O)(=O)C3(C(=O)NO)CCOCC3)cc2)CCC1OCc1ccc(F)cc1 (stereo not drawn) [Example 582] | – | – | – | – | –
< 5.00 | 7.24 | 7.80 | CN(C)Cc1ccc(COC2CCN(c3ccc(S(=O)(=O)C4(C(=O)NO)CCOCC4)cc3)CC2)cc1 [Example 566] | – | – | – | – | –
< 5.00 | 5.80 | 7.46 | COCCN1CCC(C(=O)NO)(S(=O)(=O)c2ccc(N3CCC(C(=O)NCc4ccccc4)CC3)cc2)CC1 [Example 247, N-Hydroxy-1-(2-methoxyethyl)-4-[[4-[4-[[(phenylmethyl)amino]carbonyl]-1-piperidinyl]phenyl]-sulfonyl]-4-piperidinecarboxamide, Monohydrochloride] | – | – | – | – | –
< 5.00 | 10.00 | 9.10 | O=C(c1ccccc1)N1CCC(C(=O)NO)(S(=O)(=O)c2ccc(Oc3ccc(C(F)(F)F)cc3)cc2)CC1 [Example 92] | – | – | – | – | –
< 5.00 | 6.48 | 7.32 | O=C(NO)C1(S(=O)(=O)c2ccc(OC3CCCC(OCc4ccccc4Cl)C3)cc2)CCOCC1 (stereo not drawn) [Example 666] | – | – | – | – | –
< 5.00 | 7.59 | 8.70 | O=C(NO)C1(S(=O)(=O)c2ccc(OC3CCC(OCc4cccc(Cl)c4)C3)cc2)CCOCC1 (stereo not drawn) [Example 668] | – | – | – | – | –
